Test system: Lactobacillus acidophilus ATCC 314
Test: Test 1: comparison between nutrient substrates (use of substrate added to MRS broth base by Lactobacillus)
Format: cell-based, Lactobacillus acidophilus ATCC 314 (human origin)
Details: for Lactic acid (%): HPLC; for Lactic acid (%) / D.O. / pH: 37°C, 24 hours; for D.O.: optical density of the culture; for growth and production of lactic acid: concentrations from 0.5 to 2.0%; for pH: starting pH 5.7±0.2
Source text: Since the Lactobacilli control the vaginal pH by means of the production of lactic acid it appeared to be useful to verify, both directly and indirectly, their capacity to utilise the various substrates proposed for the production of lactic acid and consequently their utility in the formulation of the composition.
• Lactobacillus acidophilus ATCC 314 (human origin) • Lactobacillus acidophilus wt (from vaginal swab)
• MRS broth (Lactobacillus broth according to De Man, Rogose) Merck • MRS broth base (without D(+)-glucose) • Series of MRS broth base media to which maltodextrins were added in percentages lying between 0.1 and 5% • Series of MRS broth base media to which glycogen was added in quantities lying between 0.5 and 2% • Series of MRS broth base media to which glucose was added in quantities lying between 0.1 and 2% • Series of MRS broth base media to which lactose was added in quantities lying between 0.5 and 2% Note: the pH of the media was always 5.7±0.2.
After having prepared fresh cultures of Lactobacilli in agar, an inoculation into five ml of MRS broth was incubated at 37°C for 24 hours. Aliquotes were prepared from 60 ml of the previously described media and in each of these were inoculated 600 µl of the culture in agar, with subsequent incubation at 37°C for 24 hours. As negative control aliquotes of 3 ml of the above-described media without inoculation of Lactobacilli were incubated. As positive control Merck MRS broth was utilised.
After 24 hours of incubation the optical density of the cultures was measured, the pH of the media was determined after centrifugation and filtration of the supernatant with a 0.45µ filter. The lactic acid present in the culture was also quantified by the HPLC method utilising as a control a laboratory standard of the same. These evaluation parameters have the following significance: • An increase in optical density confirms the growth of Lactobacilli; • Reduction in pH indicates the formation of lactic acid; • The quantitative determination of the lactic acid measures the efficiency of the use of the nutrient substrate by the Lactobacilli.

[1] = result in words, concentration of 0.1%
[2] = substrate 0.5 % in MRS broth base
[3] = substrate 1.0 % in MRS broth base
[4] = substrate 2.0 % in MRS broth base

OC[C@H]1OC(O)[C@H](O)[C@@H](O)[C@@H]1O (stereo partly shown) [GLU, Glucose]
Lactic acid (%) (substrate 0.1 %): 0.17% | Lactic acid (%) (substrate 0.5 %): 0.90% | Lactic acid (%) (substrate 1.0 %): 1.80% | Lactic acid (%) (substrate 2.0 %): 2.43% | D.O. (substrate 0.1 %): 0.665 | D.O. (substrate 0.5 %): 1.540 | D.O. (substrate 1.0 %): 2.593 | D.O. (substrate 2.0 %): 2.540 | utilised for the growth of Lactobacillus [1]: significant | utilised for the production of lactic acid [1]: hardly utilised | growth and production of lactic acid (result in words): utilised in a useful and dose-dependent manner | pH (substrate 0.1 % in MRS broth base): 5.56 | pH [2]: 4.74 | pH [3]: 4.33 | pH [4]: 4.57

OC[C@H]1O[C@@H](O[C@H]2[C@H](O)[C@@H](O)C(O)O[C@@H]2CO)[C@H](O)[C@@H](O)[C@H]1O (stereo partly shown) [LA, Lactose]
Lactic acid (%) (substrate 0.5 %): <0.10% | Lactic acid (%) (substrate 1.0 %): <0.10% | Lactic acid (%) (substrate 2.0 %): <0.10% | D.O. (substrate 0.5 %): 0.218 | D.O. (substrate 1.0 %): 0.221 | D.O. (substrate 2.0 %): 0.179 | growth and production of lactic acid (result in words): rather poor | pH [2]: 5.88 | pH [3]: 5.91 | pH [4]: 5.94

From patent publication EP1481666A1, “A composition for re-establishment of the vaginal ecosystem” (ROTTAPHARM S.R.L., priority 2003, dated 2004)
